Data taken from PubChem BioAssay (NCI).
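Step 1: Grow cells in 96-well plates. Step 2: Expose to compound for 48 hours at 5 concentrations. Step 3: Interpolate endpoints linearly; if unreached, use highest concentration. GI50: concentration for 50% inhibition of growth. TGI: concentration producing complete growth inhibition.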

Key:
Assay in all cases: NCI-60 cell line screen, 48 h
786-0 renal = test system: 786-0 renal
A498 renal = test system: A498 renal
A549 NSCLC = test system: A549 NSCLC
ACHN renal = test system: ACHN renal
BT-549 breast = test system: BT-549 breast
CAKI-1 renal = test system: CAKI-1 renal
CCRF-CEM leukemia = test system: CCRF-CEM leukemia
COLO 205 colon = test system: COLO 205 colon
DU-145 prostate = test system: DU-145 prostate
EKVX NSCLC = test system: EKVX NSCLC
HCC-2998 colon = test system: HCC-2998 colon
HCT-116 colon = test system: HCT-116 colon
HCT-15 colon = test system: HCT-15 colon
HL-60(TB) leukemia = test system: HL-60(TB) leukemia
HOP-62 NSCLC = test system: HOP-62 NSCLC
HOP-92 NSCLC = test system: HOP-92 NSCLC
HS 578T breast = test system: HS 578T breast
HT29 colon = test system: HT29 colon
IGROV1 ovarian = test system: IGROV1 ovarian
K-562 leukemia = test system: K-562 leukemia
KM12 colon = test system: KM12 colon
LOX IMVI melanoma = test system: LOX IMVI melanoma
M14 melanoma = test system: M14 melanoma
MALME-3M melanoma = test system: MALME-3M melanoma
MCF7 breast = test system: MCF7 breast
MDA-MB-231 breast = test system: MDA-MB-231 breast
MDA-MB-435 = test system: MDA-MB-435
MDA-MB-468 breast = test system: MDA-MB-468 breast
MOLT-4 leukemia = test system: MOLT-4 leukemia
NCI-H226 lung = test system: NCI-H226 lung
NCI-H23 lung = test system: NCI-H23 lung
NCI-H460 lung = test system: NCI-H460 lung
NCI-H522 lung = test system: NCI-H522 lung
NCI/ADR-RES ovarian = test system: NCI/ADR-RES ovarian
OVCAR-3 ovarian = test system: OVCAR-3 ovarian
OVCAR-4 ovarian = test system: OVCAR-4 ovarian
OVCAR-5 ovarian = test system: OVCAR-5 ovarian
OVCAR-8 ovarian = test system: OVCAR-8 ovarian
PC-3 prostate = test system: PC-3 prostate
RPMI-8226 leukemia = test system: RPMI-8226 leukemia
RXF 393 renal = test system: RXF 393 renal
SF-268 CNS = test system: SF-268 CNS
SF-295 CNS = test system: SF-295 CNS
SF-539 CNS = test system: SF-539 CNS
SK-MEL-2 melanoma = test system: SK-MEL-2 melanoma
SK-MEL-28 melanoma = test system: SK-MEL-28 melanoma
SK-MEL-5 melanoma = test system: SK-MEL-5 melanoma
SK-OV-3 ovarian = test system: SK-OV-3 ovarian
SN12C renal = test system: SN12C renal
SNB-19 CNS = test system: SNB-19 CNS
SNB-75 CNS = test system: SNB-75 CNS
SR leukemia = test system: SR leukemia
SW-620 colon = test system: SW-620 colon
T-47D breast = test system: T-47D breast
TK-10 renal = test system: TK-10 renal
U251 CNS = test system: U251 CNS
UACC-257 melanoma = test system: UACC-257 melanoma
UACC-62 melanoma = test system: UACC-62 melanoma
UO-31 renal = test system: UO-31 renal

CCCCCCn1c(O)c(N=Nc2nc(-c3cc4ccccc4oc3=O)cs2)c2ccccc21
GI50 (786-0 renal): 17.5 µM
TGI (786-0 renal): 31.4 µM
GI50 (A498 renal): 19.7 µM
TGI (A498 renal): 33.9 µM
GI50 (A549 NSCLC): 13.6 µM
TGI (A549 NSCLC): 27.7 µM
GI50 (ACHN renal): 16.7 µM
TGI (ACHN renal): 30.3 µM
GI50 (BT-549 breast): 15.7 µM
TGI (BT-549 breast): 29.2 µM
GI50 (CAKI-1 renal): 17.7 µM
TGI (CAKI-1 renal): 32.2 µM
GI50 (CCRF-CEM leukemia): 10.4 µM
TGI (CCRF-CEM leukemia): 44.8 µM
GI50 (COLO 205 colon): 11 µM
TGI (COLO 205 colon): 24.9 µM
GI50 (DU-145 prostate): 16.3 µM
TGI (DU-145 prostate): 30.1 µM
GI50 (EKVX NSCLC): 9.61 µM
TGI (EKVX NSCLC): 21.4 µM
GI50 (HCC-2998 colon): 16.2 µM
TGI (HCC-2998 colon): 29.7 µM
GI50 (HCT-116 colon): 11.1 µM
TGI (HCT-116 colon): 23.4 µM
GI50 (HCT-15 colon): 15.2 µM
TGI (HCT-15 colon): 28.7 µM
GI50 (HL-60(TB) leukemia): 18.8 µM
TGI (HL-60(TB) leukemia): 45.1 µM
GI50 (HOP-62 NSCLC): 16.2 µM
TGI (HOP-62 NSCLC): 30.3 µM
GI50 (HOP-92 NSCLC): 11 µM
TGI (HOP-92 NSCLC): 23.9 µM
GI50 (HS 578T breast): 7.91 µM
TGI (HS 578T breast): 52.3 µM
GI50 (HT29 colon): 11.6 µM
TGI (HT29 colon): 24.4 µM
GI50 (IGROV1 ovarian): 17.2 µM
TGI (IGROV1 ovarian): 30.9 µM
GI50 (K-562 leukemia): 15.2 µM
TGI (K-562 leukemia): 43.8 µM
GI50 (KM12 colon): 17.9 µM
TGI (KM12 colon): 33.8 µM
GI50 (LOX IMVI melanoma): 15.5 µM
TGI (LOX IMVI melanoma): 28.9 µM
GI50 (M14 melanoma): 15 µM
TGI (M14 melanoma): 28.8 µM
GI50 (MALME-3M melanoma): 16.9 µM
TGI (MALME-3M melanoma): 30.6 µM
GI50 (MCF7 breast): 12.1 µM
TGI (MCF7 breast): 25.9 µM
GI50 (MDA-MB-231 breast): 11.6 µM
TGI (MDA-MB-231 breast): 23.8 µM
GI50 (MDA-MB-435): 17 µM
TGI (MDA-MB-435): 31.2 µM
GI50 (MDA-MB-468 breast): 15.7 µM
TGI (MDA-MB-468 breast): 29.7 µM
GI50 (MOLT-4 leukemia): 15.8 µM
TGI (MOLT-4 leukemia): 42.6 µM
GI50 (NCI-H226 lung): 14.9 µM
TGI (NCI-H226 lung): 28.1 µM
GI50 (NCI-H23 lung): 12.2 µM
TGI (NCI-H23 lung): 24.6 µM
GI50 (NCI-H460 lung): 15.1 µM
TGI (NCI-H460 lung): 30.1 µM
GI50 (NCI-H522 lung): 4.1 µM
TGI (NCI-H522 lung): 14 µM
GI50 (NCI/ADR-RES ovarian): 15.1 µM
TGI (NCI/ADR-RES ovarian): 28.9 µM
GI50 (OVCAR-3 ovarian): 16.9 µM
TGI (OVCAR-3 ovarian): 30.8 µM
GI50 (OVCAR-4 ovarian): 14.2 µM
TGI (OVCAR-4 ovarian): 27.5 µM
GI50 (OVCAR-5 ovarian): 17.1 µM
TGI (OVCAR-5 ovarian): 30.8 µM
GI50 (OVCAR-8 ovarian): 17.1 µM
TGI (OVCAR-8 ovarian): 32.1 µM
GI50 (PC-3 prostate): 10.6 µM
TGI (PC-3 prostate): 23.5 µM
GI50 (RPMI-8226 leukemia): 17.2 µM
TGI (RPMI-8226 leukemia): 53.1 µM
GI50 (RXF 393 renal): 8.91 µM
TGI (RXF 393 renal): 21.1 µM
GI50 (SF-268 CNS): 17.3 µM
TGI (SF-268 CNS): 38.6 µM
GI50 (SF-295 CNS): 14.4 µM
TGI (SF-295 CNS): 27.5 µM
GI50 (SF-539 CNS): 16 µM
TGI (SF-539 CNS): 29.5 µM
GI50 (SK-MEL-2 melanoma): 18.3 µM
TGI (SK-MEL-2 melanoma): 32.4 µM
GI50 (SK-MEL-28 melanoma): 13.9 µM
TGI (SK-MEL-28 melanoma): 26.8 µM
GI50 (SK-MEL-5 melanoma): 9.02 µM
TGI (SK-MEL-5 melanoma): 21.1 µM
GI50 (SK-OV-3 ovarian): 15.2 µM
TGI (SK-OV-3 ovarian): 29.1 µM
GI50 (SN12C renal): 17.4 µM
TGI (SN12C renal): 31.2 µM
GI50 (SNB-19 CNS): 15.1 µM
TGI (SNB-19 CNS): 28.4 µM
GI50 (SNB-75 CNS): 12 µM
TGI (SNB-75 CNS): 24.8 µM
GI50 (SR leukemia): 7.19 µM
TGI (SR leukemia): 34.8 µM
GI50 (SW-620 colon): 16.6 µM
TGI (SW-620 colon): 31.3 µM
GI50 (T-47D breast): 12.7 µM
TGI (T-47D breast): 32.5 µM
GI50 (TK-10 renal): 19.4 µM
TGI (TK-10 renal): 33.6 µM
GI50 (U251 CNS): 15.8 µM
TGI (U251 CNS): 29.9 µM
GI50 (UACC-257 melanoma): 17.4 µM
TGI (UACC-257 melanoma): 31.7 µM
GI50 (UACC-62 melanoma): 13.7 µM
TGI (UACC-62 melanoma): 26.5 µM
GI50 (UO-31 renal): 14.1 µM
TGI (UO-31 renal): 27.1 µM
